Source: patent US20250019386A1, “PYRROLO[1,2-b]-2-PYRIDAZINONE COMPOUNDS AS 5-HT4 RECEPTOR AGONISTS” (SUVEN LIFE SCIENCES LIMITED, priority 2022, published 2025)

Columns and labels:
5-HT4 receptors [1] = biological target: T1, 5-HT4 receptors (Homo sapiens (Human), UniProt Q13639); test: Determination of EC50 values for 5-HT4 receptor (pCRE-Luc reporter assay); type: cell-based; conditions: CHO cells expressing recombinant human 5-HT4 receptor and pCRE-Luc reporter; 4 h incubation; luciferase activity
Method: A stable CHO cell line expressing recombinant human 5-HT4 receptor and pCRE-Luc reporter system was used for cell-based assay. The assay offers a non-radioactive based approach to determine binding of a compound to GPCRs. In this specific assay, the level of intracellular cyclic AMP, which is modulated by activation, or inhibition of the receptor is measured. The recombinant cells harbor luciferase reporter gene under the control of cAMP response element.
The above cells were grown in 96 well clear bottom white plates in Ham's F12 medium containing 10% fetal bovine serum. Prior to the addition of compounds or standard agonist, cells were serum starved overnight. Increasing concentrations of test compounds were added to the cells in OptiMEM medium. The incubation was continued in CO2 incubator at 37° C. with 5% CO2 conditions for 4 h. Medium was removed and cells were washed with phosphate buffered saline. The cells were lysed and luciferase activity was measured in a Luminometer. Concentration-response data was generated using the luciferase assay, following incubation of cells with receptor ligands, were analyzed by subtracting basal levels (i.e. with medium alone), then normalizing values as a percentage of controls (endogenous agonist serotonin (10 μM)). […] EC50 values of the compounds were defined as the concentration required in stimulating the luciferase activity by 50%.

[2] = Rat pharmacokinetic study; type: in vivo; conditions: male Wistar rats, plasma; for bioavailability: oral 3 mg/kg vs intravenous 1 mg/kg
Method: Male Wistar rats (250±50 g) were used as experimental animals. Animals were housed individually in polypropylene cages. Two days prior to study, rats were anesthetized with isoflurane for surgical placement of jugular vein catheter. Rats were randomly divided for oral (3 mg/kg and 10 mL/kg as dose volume) and intravenous (1 mg/kg and 2 mL/kg as dose volume) dosing (n=3/group) and fasted overnight before oral dosing (p.o.). However, rats allocated to intravenous dosing food and water was provided ad libitum.
Intravenous formulation was prepared by using water for injection as vehicle. For Oral, formulation was prepared by using reagent grade water as vehicle. The dose formulations were prepared freshly on the day of dosing.
After dosing of animal, each time point a 200 μL of blood sample was collected through jugular vein and replenished with an equivalent volume of normal saline. The collected blood sample was transferred into a labeled eppendorf tube containing 10 μL of sodium heparin (1000 IU/mL) as an anticoagulant. Typically blood samples were collected at following time points: 0.08, 0.25, 0.5, 1, 2, 4, 6, 8, and 24 h post dose. Blood was centrifuged at 4000 rpm for 10 min. Plasma was separated and stored frozen at −80° C. until analysis. The concentrations of the test compounds were quantified in plasma by qualified LC-MS/MS method using a suitable extraction technique. The test compounds were quantified in the calibration range around 1-2000 ng/mL in plasma. Study samples were analyzed using calibration samples in the batch and quality control samples spread across the batch.
Pharmacokinetic parameters Cmax, AUCt, t1/2 and bioavailability were calculated by non-compartmental model using standard non-compartmental model by using Phoenix WinNonlin 6.4 version Software.

[3] = Rat brain penetration study; type: in vivo; conditions: brain/plasma, oral (gavage) 3 mg/kg, male Wistar rats, brain concentrations below LLOQ taken as zero, read-out: Single dose Brain Penetration (Cb/Cp)
Method: Male Wistar rats (225±25 g) were used as experimental animals. Three animals were housed in each cage. Animals were given water and food ad libitum throughout the experiment and maintained on a 12 h light/dark cycle.
Brain penetration was determined in discrete manner in rats. One day prior to dosing day, male Wistar rats were acclimatized. After acclimatization, the rats were grouped according to their weight. In each group, 3 animals were kept in individual cages and allowed free access to food and water. At each time point (0.5, 1, and 2 h) n=3 animals were used.
The compounds of formula (I) were suitably preformulated and administered orally at (free base equivalent) 3 mg/kg. Blood samples were collected via, cardiac puncture by using isoflurane anesthesia. The animals were sacrificed to collect brain tissue. Plasma was separated and brain samples were homogenized and stored frozen at −20° C. until analysis.
The concentrations of the compounds of formula (I) were quantified in plasma and brain homogenate by qualified LC-MS/MS method using a suitable extraction technique. The compounds of formula (I) were quantified in the calibration range of 1-2000 ng/mL in plasma and brain homogenate. Study samples were analyzed using calibration samples in the batch and quality control samples spread across the batch. Extent of brain-plasma ratio was calculated (Cb/Cp). Brain concentrations were found below LLOQ and a value of zero was considered for calculation purposes.

gastric emptying = test: Effect on gastric emptying in Beagle dogs (clonidine model of gastroparesis); type: in vivo; conditions: 10 mg/kg oral, clonidine-treated beagle dogs
Method: Six beagle dogs were used for the study in a crossover manner such that all 6 dogs received all the treatments. Each dog was placed in an individual cage after overnight fasting and water removed. To provide a model of gastroparesis, clonidine (α2 adrenergic agonist) at a dose of 10 μg/kg was injected subcutaneously 30 min before test meal administration.
Dogs were orally administered test compound of example 2 at 1, 3 and 10 mg/kg or vehicle or cisapride at 10 mg/kg immediately before the administration of clonidine. The test meal (10 mL/kg), made up of commercially available semi-solid food with 10 mg/kg of acetaminophen (APAP), was provided 30 min after clonidine injection. Blood samples were collected from cephalic vein at 0, 0.25, 0.5, 0.75, 1.0, 1.25, 1.5 & 2.0 h after test meal administration and then plasma was separated by centrifugation. Plasma concentrations of APAP were determined by in-house methods using LC-MS/MS.

5-HT4 receptors [4] = biological target: T1, 5-HT4 receptors; conditions: background statement; cited from earlier work
hERG potassium channels = hERG potassium channels (Homo sapiens (Human), UniProt Q12809); conditions: background statement; cited from earlier work
hERG potassium channels, sequence (Q12809 whole entry): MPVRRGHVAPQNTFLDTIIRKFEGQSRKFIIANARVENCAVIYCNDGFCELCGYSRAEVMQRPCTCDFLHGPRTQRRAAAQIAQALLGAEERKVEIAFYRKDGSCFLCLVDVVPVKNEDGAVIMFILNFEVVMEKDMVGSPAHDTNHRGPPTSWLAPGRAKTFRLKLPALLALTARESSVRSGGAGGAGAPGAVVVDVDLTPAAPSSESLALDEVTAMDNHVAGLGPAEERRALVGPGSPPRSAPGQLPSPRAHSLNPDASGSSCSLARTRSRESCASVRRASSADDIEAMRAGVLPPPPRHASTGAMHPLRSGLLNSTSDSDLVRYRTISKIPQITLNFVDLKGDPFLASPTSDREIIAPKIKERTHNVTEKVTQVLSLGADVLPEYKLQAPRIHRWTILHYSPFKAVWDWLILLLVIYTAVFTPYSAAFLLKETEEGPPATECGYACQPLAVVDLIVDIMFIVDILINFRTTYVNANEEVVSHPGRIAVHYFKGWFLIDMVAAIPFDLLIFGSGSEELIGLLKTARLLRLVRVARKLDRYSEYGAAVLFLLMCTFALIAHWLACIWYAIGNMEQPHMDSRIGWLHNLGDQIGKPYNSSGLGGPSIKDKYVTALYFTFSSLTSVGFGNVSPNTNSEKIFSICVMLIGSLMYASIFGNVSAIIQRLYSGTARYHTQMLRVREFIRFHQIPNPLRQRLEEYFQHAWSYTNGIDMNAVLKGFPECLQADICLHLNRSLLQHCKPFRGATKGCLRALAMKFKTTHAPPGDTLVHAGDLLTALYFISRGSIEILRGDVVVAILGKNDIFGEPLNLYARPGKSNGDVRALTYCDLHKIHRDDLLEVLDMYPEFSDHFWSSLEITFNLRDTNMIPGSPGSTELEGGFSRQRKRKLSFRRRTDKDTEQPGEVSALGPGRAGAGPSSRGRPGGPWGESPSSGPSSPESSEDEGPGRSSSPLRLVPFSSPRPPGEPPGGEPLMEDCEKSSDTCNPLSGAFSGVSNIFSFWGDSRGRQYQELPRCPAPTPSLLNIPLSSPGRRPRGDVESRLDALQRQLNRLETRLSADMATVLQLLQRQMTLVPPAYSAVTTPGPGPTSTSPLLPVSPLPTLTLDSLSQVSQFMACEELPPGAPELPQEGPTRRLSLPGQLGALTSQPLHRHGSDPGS

T1 sequence (Q13639 whole entry): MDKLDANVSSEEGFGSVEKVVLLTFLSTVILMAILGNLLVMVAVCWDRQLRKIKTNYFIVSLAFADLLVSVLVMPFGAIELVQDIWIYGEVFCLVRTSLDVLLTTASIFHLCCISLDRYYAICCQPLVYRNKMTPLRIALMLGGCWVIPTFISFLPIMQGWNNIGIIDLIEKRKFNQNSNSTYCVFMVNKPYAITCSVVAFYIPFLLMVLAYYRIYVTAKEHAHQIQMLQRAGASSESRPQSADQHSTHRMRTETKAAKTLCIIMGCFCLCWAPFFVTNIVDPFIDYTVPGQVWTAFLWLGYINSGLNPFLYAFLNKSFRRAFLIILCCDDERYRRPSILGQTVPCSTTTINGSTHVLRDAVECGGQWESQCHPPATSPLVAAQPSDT

## CC(C)n1c(=O)c(C(=O)NC2CC3CCC(C2)N3CCNS(C)(=O)=O)cc2cccn21.O=C(O)C(O)C(O)C(=O)O [Example 28, N-{8-[2-Methanesulfonylaminoethyl]-8-azabicyclo[3.2.1]oct-3-yl} [1-isopropyl-2-oxo-1,2-dihydro pyrrolo[1,2-b]pyridazin]-3-carboxamide L-(+)-tartrate]
5-HT4 receptors [1]
  EC50: 12 nM
[2]; intravenous (bolus), 1 mg/kg
  AUC(0-t): 146 ± 39 ng·h/mL
  half-life: 1.3 ± 0.2 h
[2]; oral (gavage), 3 mg/kg
  AUC(0-t): 189 ± 26 ng·h/mL
  Cmax: 83 ± 51 ng/mL
[2]
  bioavailability: 43 ± 6%
[3]
  Kp: 0

## COC(=O)NCCCN1C2CCC1CC(NC(=O)c1cc3cccn3n(C(C)C)c1=O)C2.O=C(O)C(O)C(O)C(=O)O [Example 34, N-{8-[3-Carbomethoxyaminopropyl]-8-azabicyclo[3.2.1]oct-3-yl} [1-isopropyl-2-oxo-1,2-dihydro pyrrolo[1,2-b]pyridazin]-3-carboxamide L-(+)-tartrate]
5-HT4 receptors [1]
  EC50: 18 nM
[2]; intravenous (bolus), 1 mg/kg
  AUC(0-t): 119 ± 16 ng·h/mL
  half-life: 1.3 ± 0.3 h
[2]; oral (gavage), 3 mg/kg
  AUC(0-t): 274 ± 74 ng·h/mL
  Cmax: 174 ± 49 ng/mL
[2]
  bioavailability: 77 ± 21%
[3]
  Kp: 0

## COc1cc(N)c(Cl)cc1C(=O)NC1CCN(CCCOc2ccc(F)cc2)CC1OC (stereo not shown) [cisapride]
Gastric emptying
  speed of gastric emptying: restored speed of gastric emptying
5-HT4 receptors [4]
  selectivity for 5-HT4 receptors: poor selectivity
hERG potassium channels
  interaction with hERG potassium channels: potent interaction

## [H]/N=C(/NCCCCC)N/N=C/c1c[nH]c2ccc(OC)cc12 [tegaserod]
5-HT4 receptors [4]
  selectivity for 5-HT4 receptors: poor selectivity
hERG potassium channels
  interaction with hERG potassium channels: potent interaction
